Data published in EP4603105A1, “PHARMACEUTICAL COMPOSITION CONTAINING CYCLIC COMPOUND HAVING SELECTIVE KRAS INHIBITORY EFFECT AGAINST HRAS AND NRAS” (CHUGAI SEIYAKU KABUSHIKI KAISHA, priority 2022, dated 2024).

Tests used:
[1] = system: human lung cancer strain NCI-H441; type: cell-based
Outline: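 Step one: dispense the test compound in serial DMSO dilutions. Step three: add the reagent and measure […].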

[2] = biological target: GDP-bound NRAS wild-type protein (Homo sapiens, UniProt P01111); experiment: Binding to NRAS by surface plasmon resonance (SPR), KD and KD ratio to KRAS; conditions: ratio of KD for GDP-bound NRAS wild-type protein to KD for KRAS
Sequence of GDP-bound NRAS wild-type protein (P01111 whole entry): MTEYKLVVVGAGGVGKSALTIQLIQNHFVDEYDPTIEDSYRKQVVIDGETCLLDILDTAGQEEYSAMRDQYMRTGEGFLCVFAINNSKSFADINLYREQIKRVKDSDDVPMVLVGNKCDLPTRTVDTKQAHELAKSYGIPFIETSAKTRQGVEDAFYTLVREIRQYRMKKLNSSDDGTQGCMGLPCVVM
Outline: (§1)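 Running buffer contained 10 µM GDP and 10 mM MgCl2 to keep RAS in the GDP state, with 4% DMSO at pH 7.4. Compounds were flowed at 100 µL/min in 75 s steps of rising concentration over captured biotin-Avi RAS at 30°C. Sensorgrams were fitted 1:1 for KD.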

HRAS wild-type protein = HRAS wild-type protein (Homo sapiens, UniProt P01112); experiment: Binding to HRAS by surface plasmon resonance (SPR), KD and KD ratio to KRAS; conditions: ratio of KD for HRAS wild-type protein to KD for KRAS
Sequence of HRAS wild-type protein (P01112 whole entry): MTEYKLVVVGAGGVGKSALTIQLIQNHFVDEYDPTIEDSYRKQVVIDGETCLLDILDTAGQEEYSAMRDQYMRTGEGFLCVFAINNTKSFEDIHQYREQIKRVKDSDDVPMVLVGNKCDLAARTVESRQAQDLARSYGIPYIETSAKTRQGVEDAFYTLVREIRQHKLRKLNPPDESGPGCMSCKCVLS
Outline: as §1

[3] = biological target: GDP-bound KRAS wild-type protein (Homo sapiens, UniProt P01116); experiment: Binding to KRAS by surface plasmon resonance (SPR), dissociation constant KD; conditions: 1:1 binding model
Sequence of GDP-bound KRAS wild-type protein (P01116 1-188 isoform P01116-2): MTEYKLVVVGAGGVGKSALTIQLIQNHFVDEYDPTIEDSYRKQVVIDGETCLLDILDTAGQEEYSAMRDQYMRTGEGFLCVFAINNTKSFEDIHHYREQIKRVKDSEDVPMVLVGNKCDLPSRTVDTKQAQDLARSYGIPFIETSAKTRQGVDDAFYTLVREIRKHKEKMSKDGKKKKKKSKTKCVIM
Outline: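 GDP-loaded biotinylated Avi-tag RAS proteins (E. coli-expressed) captured on a Biotin CAPture chip at ~100–300 RU; single-cycle kinetics at 30°C, 100 µL/min, 75 s injections of rising compound concentrations. HBS pH 7.4 running buffer with 1 mM DTT, 10 mM MgCl2, 10 µM GDP, 4% DMSO. KD from 1:1 binding fit.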

Row | Structure (SMILES) | IC50 [1] [nM] | Kd [3] [nM] | NRAS /KRAS [2] | HRAS /KRAS (HRAS wild-type protein)
1 | CCCC[C@H]1C(=O)N[C@@H]([C@@H](C)CC)C(=O)N(C)CC(=O)N(C)[C@H]2C/C=C\CCN(C2=O)[C@@H](Cc2ccc(C)cc2)C(=O)N(C)CC(=O)N[C@@H](CCc2cc(F)c(C(F)(F)F)c(F)c2)C(=O)N2C[C@H](OCC)C[C@H]2C(=O)NC2(CC(C)(C)C2)C(=O)N(C)[C@@H](C2CCCC2)C(=O)N(C)[C@H](C(=O)N(C)C)CC(=O)N1C [PP2800] | 7.9 | 0.056 | A (a compound having 10 or more and less than 20 is denoted as A) | A (a compound having 10 or more and less than 20 is denoted as A)
2 | CC[C@H](C)[C@@H]1NC(=O)[C@H](CC2CC2)N(C)C(=O)C[C@@H](C(=O)N(C)CC)N(C)C(=O)[C@H](C2CCCC2)N(C)C(=O)C2(CC(C)(C)C2)NC(=O)[C@@H]2C[C@@H](F)CN2C(=O)[C@H](CCc2cc(F)c(C(F)(F)F)c(F)c2)NC(=O)CN(C)C(=O)[C@H](Cc2ccc(C)cc2)N2CC/C=C\C[C@@H](C2=O)N(C)C(=O)CN(C)C1=O [PP2802] | 5.5 | 0.034 | AA (a compound having 20 or more is denoted as AA) | A (a compound having 10 or more and less than 20 is denoted as A)
3 | CCC[C@H]1C(=O)N[C@@H]([C@@H](C)CC)C(=O)N(C2CC2)CC(=O)N(C)[C@H]2C/C=C\CCN(C2=O)[C@@H](Cc2ccc(C)cc2)C(=O)N(C)CC(=O)N[C@@H](CCc2ccc(Cl)c(Cl)c2)C(=O)N2C[C@H](OCC)C[C@H]2C(=O)NC2(CC(C)(C)C2)C(=O)N(C)[C@@H](CC2CC2)C(=O)N(C)[C@H](C(=O)N(C)C)CC(=O)N1C [PP2805] | 83 | 3.7 | A (a compound having 10 or more and less than 20 is denoted as A) | A (a compound having 10 or more and less than 20 is denoted as A)
4 | CCO[C@@H]1C[C@H]2C(=O)N(C)C3(CC(C)(C)C3)C(=O)N(C)[C@@H](C(CC)CC)C(=O)N(C)[C@H](C(=O)N(C)C)CC(=O)N(C)[C@@H](COC)C(=O)N[C@@H]([C@@H](C)CC)C(=O)N(C)CC(=O)N(C)[C@H]3C/C=C\CCN(C3=O)[C@@H](Cc3ccc(C)cc3)C(=O)N(C)CC(=O)N[C@@H](CCc3ccc(Cl)c(Cl)c3)C(=O)N2C1 [PP2810] | 38.1 | 0.46 | AA (a compound having 20 or more is denoted as AA) | A (a compound having 10 or more and less than 20 is denoted as A)
5 | CCCO[C@@H]1C[C@H]2C(=O)N(C)C3(CC(C)(C)C3)C(=O)N(C)[C@@H](C(CC)CC)C(=O)N(C)[C@H](C(=O)N(C)C)CC(=O)N(C)[C@@H](COC)C(=O)N[C@@H]([C@@H](C)CC)C(=O)N(C)CC(=O)N(C)[C@H]3C/C=C\CCN(C3=O)[C@@H](Cc3ccc(C)cc3)C(=O)N(C)CC(=O)N[C@@H](CCc3ccc(Cl)c(Cl)c3)C(=O)N2C1 [PP2812] | 41 | 0.56 | AA (a compound having 20 or more is denoted as AA) | A (a compound having 10 or more and less than 20 is denoted as A)
6 | CCC(CC)[C@H]1C(=O)N(C)[C@H](C(=O)N(C)C)CC(=O)N(C)[C@@H](COC)C(=O)N[C@@H]([C@@H](C)CC)C(=O)N(C)CC(=O)N(C)[C@H]2C/C=C\CCN(C2=O)[C@@H](Cc2ccc(C)cc2)C(=O)N(C)CC(=O)N[C@@H](CCc2ccc(Cl)c(Cl)c2)C(=O)N2C[C@H](OC(C)C)C[C@H]2C(=O)N(C)C2(CC(C)(C)C2)C(=O)N1C [PP2814] | 44.4 | 0.37 | AA (a compound having 20 or more is denoted as AA) | A (a compound having 10 or more and less than 20 is denoted as A)
7 | CCC(CC)[C@H]1C(=O)N(C)[C@H](C(=O)N(C)C)CC(=O)N(C)[C@@H](COC)C(=O)N[C@@H]([C@@H](C)CC)C(=O)N(C)CC(=O)N(C)[C@H]2C/C=C\CCN(C2=O)[C@@H](Cc2ccc(C)cc2)C(=O)N(C)CC(=O)N[C@@H](CCc2ccc(Cl)c(Cl)c2)C(=O)N2C[C@H](OC3CCC3)C[C@H]2C(=O)N(C)C2(CC(C)(C)C2)C(=O)N1C [PP2816] | 22.8 | 0.39 | AA (a compound having 20 or more is denoted as AA) | A (a compound having 10 or more and less than 20 is denoted as A)

Now from value to compound, other results behind:

Row | IC50 [1] [nM] | Kd [3] [nM] | Structure (SMILES) | NRAS /KRAS [2] | HRAS /KRAS (HRAS wild-type protein)
8 | 62.4 | 0.94 | CCC(CC)[C@H]1C(=O)N(C)[C@H](C(=O)N(C)C)CC(=O)N(C)[C@@H](COC)C(=O)N[C@@H]([C@@H](C)CC)C(=O)N(C)CC(=O)N(C)[C@H]2C/C=C\CCN(C2=O)[C@@H](Cc2ccc(C)cc2)C(=O)N(C)CC(=O)N[C@@H](CCc2ccc(Cl)c(Cl)c2)C(=O)N2CC3(CC3)C[C@H]2C(=O)N(C)C2(CC(C)(C)C2)C(=O)N1C [PP2820] | AA (a compound having 20 or more is denoted as AA) | A (a compound having 10 or more and less than 20 is denoted as A)
9 | 23.4 | 0.44 | CCO[C@@H]1C[C@H]2C(=O)NC3(CCC3)C(=O)N(C)[C@@H](C3CCCC3)C(=O)N(C)[C@H](C(=O)N(C)CC)CC(=O)N(C)[C@@H](CC3CCC3)C(=O)N[C@@H]([C@@H](C)CC)C(=O)N(C)CC(=O)N(C)[C@H]3C/C=C\CCN(C3=O)[C@@H](Cc3ccc(C(F)(F)F)cc3)C(=O)N(C)CC(=O)N[C@@H](CCc3ccc(Cl)c(Cl)c3)C(=O)N2C1 [PP2824] | A (a compound having 10 or more and less than 20 is denoted as A) | A (a compound having 10 or more and less than 20 is denoted as A)
10 | 28.8 | 0.37 | CCCOC[C@H]1C(=O)N[C@@H]([C@@H](C)CC)C(=O)N(C)CC(=O)N(C)[C@H]2C/C=C\CCN(C2=O)[C@@H](Cc2ccc(C(F)(F)F)cc2)C(=O)N(C)CC(=O)N[C@@H](CCc2ccc(Cl)c(Cl)c2)C(=O)N2C[C@H](OCC)C[C@H]2C(=O)NC2(CCC2)C(=O)N(C)[C@@H](C2CCCC2)C(=O)N(C)[C@H](C(=O)N(C)CCC)CC(=O)N1C [PP2830] | A (a compound having 10 or more and less than 20 is denoted as A) | A (a compound having 10 or more and less than 20 is denoted as A)
11 | 8.3 | 0.086 | CCCC[C@H]1C(=O)N[C@@H]([C@@H](C)CC)C(=O)N(C)CC(=O)N(C)[C@H]2C/C=C\CCN(C2=O)[C@@H](Cc2ccc(C(F)(F)F)cc2)C(=O)N(C)CC(=O)N[C@@H](CCc2ccc(C(F)(F)F)c(Cl)c2)C(=O)N2C[C@H](OCC)C[C@H]2C(=O)NC2(CCC2)C(=O)N(C)[C@@H](C2CCCC2)C(=O)N(C)[C@H](C(=O)N(C)CC)CC(=O)N1C [PP2841] | A (a compound having 10 or more and less than 20 is denoted as A) | A (a compound having 10 or more and less than 20 is denoted as A)
12 | 22.7 | 0.3 | CCO[C@@H]1C[C@H]2C(=O)NC3(CCC3)C(=O)N(C)[C@@H](C3CCCC3)C(=O)N(C)[C@H](C(=O)N(C)CC)CC(=O)N(C)[C@@H](CC(C)C)C(=O)N[C@@H]([C@@H](C)CC)C(=O)N(C)CC(=O)N(C)[C@H]3C/C=C\CCN(C3=O)[C@@H](Cc3ccc(C(F)(F)F)cc3)C(=O)N(C)CC(=O)N[C@@H](CCc3ccc(Cl)c(Cl)c3)C(=O)N2C1 [PP2845] | AA (a compound having 20 or more is denoted as AA) | A (a compound having 10 or more and less than 20 is denoted as A)
13 | 7.3 | 0.083 | CCO[C@@H]1C[C@H]2C(=O)NC3(CCC3)C(=O)N(C)[C@@H](C3CCCC3)C(=O)N(C)[C@H](C(=O)N(C)CC)CC(=O)N(C)[C@@H](CC(C)C)C(=O)N[C@@H]([C@@H](C)CC)C(=O)N(C)CC(=O)N(C)[C@H]3C/C=C\CCN(C3=O)[C@@H](Cc3ccc(C(F)(F)F)cc3)C(=O)N(C)CC(=O)N[C@@H](CCc3ccc(C(F)(F)F)c(Cl)c3)C(=O)N2C1 [PP2847] | A (a compound having 10 or more and less than 20 is denoted as A) | A (a compound having 10 or more and less than 20 is denoted as A)
14 | 11.5 | 0.58 | CCC[C@H]1C(=O)N[C@@H]([C@@H](C)CC)C(=O)N(C2CC2)CC(=O)N(C)[C@H]2C/C=C\CCN(C2=O)[C@@H](Cc2ccc(C)cc2)C(=O)N(C)CC(=O)N[C@@H](CCc2ccc(C(F)(F)F)c(CC)c2)C(=O)N2C[C@H](OCC)C[C@H]2C(=O)NC2(CC(C)(C)C2)C(=O)N(C)[C@@H](C2CCCC2)C(=O)N(C)[C@H](C(=O)N(C)C)CC(=O)N1C [PP2870] | A (a compound having 10 or more and less than 20 is denoted as A) | A (a compound having 10 or more and less than 20 is denoted as A)
